# Read-outs that look alike come from different tables or passages of the source.
# Assays:
# Cluster 2 (962 genes) = experiment: RNAseq whole blood transcriptomics, WGCNA Cluster 2 and pathway analysis; parameters: species or system human; conditions: for Number of pathways significantly overrepresented in second cluster: among its 317 pathways
# Procedure: (§1) In order to gain insights into ANAVEX 2-73 response pathways, during the Phase 2 study, patients' DNA and RNA sequencing were analyzed. Transcriptomic samples of 65 patients enrolled in either High Dose or Mid Dose arms were collected at baseline and at the end of treatment (Week 14). The expression of 14,150 genes was measured. No transformation was applied to the TPM values. Values associated with a with RIN s 4.0 were discarded. The actual dose of ANAVEX 2-73 (blarcamesine) that was given to each patient during the trial was assessed and integrated into the database. To characterize the gene dysregulations, a pathway database was built using an aggregation of public databases including KEGG, Panther, Allen, Brain Atlas, Gene Ontology, and Reactome.
# The genes were clustered together using WGCNA, starting from their correlation of TPM expression values across samples. Seventeen clusters with size ranging from 13 to 11,190 genes were obtained through this gene clusterisation. The TPM expression values of genes in clusters were then aggregated in a single “eigengene” for each cluster. This eigengene served as a representant of the overall dysregulation of the cluster. Secondly, a cluster filtering was performed, wherein patients' arm and dose information were taken into account based on mixed effect models. For each cluster, the eigengene was used as target variable of a linear mixed effect model with 3 covariates: ActualDose, Patient, and timepoint. For each cluster, the contrast ActualDose, i.e. treated vs placebo were evaluated across all timepoints. P-values were obtained with Dunnett's test. Regardless of the cluster and pathway, pathways with less than 4 genes in a cluster were removed, to compensate for the large variability of cluster size and corresponding variability of number of pathways identified in each clusters. The ratio between cluster size and number of pathways was calculated, and top 2 clusters were retained for further Analysis. Cluster 1 contained 213 genes (n1=213) and 37 pathways, and Cluster 2 contained 962 genes (n2=962) and 317 pathways. […] Thirdly, the two retained clusters were characterized and underwent pathway analysis. The characterization and analysis were applied to all the genes of the cluster (whole cluster), and to the genes of the clusters that are known to have biological interactions (reduced cluster). In the whole cluster analysis, overrepresented pathways were identified using EnrichR package with the parameters of Fisher's adjusted p-value p<0.05 (Benjamini-Hochberg adjustment for multiple testing) and minimum pathway size 20. In the reduced cluster analysis, genes that have no interaction with any other genes of the cluster were discarded, resulting in a reduced cluster. Pathway analysis was performed on these reduced clusters. False Discovery Rate with adjustment for multiple testing (Benjamini-Hochberg procedure) was used to characterize pathways' over-representation. Known interactions between the genes of the cluster were assessed using STRING database with the parameters of Edge score >0.150, and no text mining edges. Known interactions were obtained from public databases, such as KEGG, Panther, Allen, Brain Atlas, Gene Ontology, and Reactome.
# (§2) Whole Blood Transcriptomics Analysis (RNAseq) of patients with Parkinson's disease with dementia (PDD) was performed for the ANAVEX®2-73-PDD-001 study (FIG. 1) at two timepoints: Baseline and Week 14 (end of trial). All available RNA samples with […] (RNA integrity number, using 130 samples) were analyzed. The expression of 14,150 genes at these two timepoints were analyzed from both placebo and ANAVEX® 2-73 treated patients.
# The above method was performed as illustrated in FIG. 2B. […] Then, the cluster's eigengene3 (one of a set of a genes matrix that tabulates the mRNA or gene expression of the genes across the sample) was used as summary of expression level of the cluster. […]
# [1] = system: gene clusters differentially expressed in PDD patients; experiment: RNAseq whole blood transcriptomics, gene clusters overall; parameters: species or system human
# Procedure: as §1
# The genes were clustered together using WGCNA, starting from their correlation of TPM expression values across samples. Seventeen clusters with size ranging from 13 to 11,190 genes were obtained through this gene clusterisation. The TPM expression values of genes in clusters were then aggregated in a single “eigengene” for each cluster. This eigengene served as a representant of the overall dysregulation of the cluster. […] For each cluster, the contrast ActualDose, i.e. treated vs placebo were evaluated across all timepoints. […] The ratio between cluster size and number of pathways was calculated, and top 2 clusters were retained for further Analysis. […] Known interactions between the genes of the cluster were assessed using STRING database with the parameters of Edge score >0.150, and no text mining edges. […]
# as §2, with “patients. […]” for “patients.”
# [2] = system: Sigma-1 receptor (SIGMAR1); conditions: cited from earlier work
compound,measurement,setting,value
"CN(C)CC1CCOC1(c1ccccc1)c1ccccc1.Cl (centres unmarked) [ANAVEX2-73, tetrahydro-N,N-dimethyl-2,2-diphenyl-3-furanmethanamine hydrochloride]",Overlap,Cluster 2 (962 genes),45/273
same,Number of pathways significantly overrepresented in second cluster,"Cluster 2 (962 genes); listed as ANAVEX 2-73, hydrochloride",15 pathways
same,Number of pathways significantly overrepresented in second cluster,"Cluster 2 (962 genes); listed as ANAVEX® 2-73, hydrochloride",10 pathways
same,Overlap,"Cluster 2 (962 genes); genes of pathway in Cluster 2/genes in pathway, KEGG 2021, Alzheimer disease",47/369
same,Overlap,"Cluster 2 (962 genes); genes of pathway in Cluster 2/genes in pathway, KEGG 2021, Amyotrophic lateral sclerosis",46/364
same,Overlap,"Cluster 2 (962 genes); genes of pathway in Cluster 2/genes in pathway, KEGG 2021, Cardiac muscle contraction",11/87
same,Overlap,"Cluster 2 (962 genes); genes of pathway in Cluster 2/genes in pathway, KEGG 2021, Coronavirus disease",80/232
same,Overlap,"Cluster 2 (962 genes); genes of pathway in Cluster 2/genes in pathway, KEGG 2021, Diabetic cardiomyopathy",36/203
same,Overlap,"Cluster 2 (962 genes); genes of pathway in Cluster 2/genes in pathway, KEGG 2021, Huntington disease",48/306
same,Overlap,"Cluster 2 (962 genes); genes of pathway in Cluster 2/genes in pathway, KEGG 2021, Non-alcoholic fatty liver disease",34/155
same,Overlap,"Cluster 2 (962 genes); genes of pathway in Cluster 2/genes in pathway, KEGG 2021, OProteasome",9/46
same,Overlap,"Cluster 2 (962 genes); genes of pathway in Cluster 2/genes in pathway, KEGG 2021, Oxidative phosphorylation",36/133
same,Overlap,"Cluster 2 (962 genes); genes of pathway in Cluster 2/genes in pathway, KEGG 2021, Parkinson disease",46/249
same,Overlap,"Cluster 2 (962 genes); genes of pathway in Cluster 2/genes in pathway, KEGG 2021, Pathways of neurodegeneration",50/475
same,Overlap,"Cluster 2 (962 genes); genes of pathway in Cluster 2/genes in pathway, KEGG 2021, Retrograde endocannabinoid signaling",24/148
same,Overlap,"Cluster 2 (962 genes); genes of pathway in Cluster 2/genes in pathway, KEGG 2021, Ribosome",96/158
same,Overlap,"Cluster 2 (962 genes); genes of pathway in Cluster 2/genes in pathway, KEGG 2021, Thermogenesis",45/232
same,Overlap,"Cluster 2 (962 genes); genes of term in Cluster 2/genes in term, Allen Brain Atlas, Anterior olfactory nucleus",27/300
same,Overlap,"Cluster 2 (962 genes); genes of term in Cluster 2/genes in term, Allen Brain Atlas, Anterior olfactory nucleus, external part",34/300
same,Overlap,"Cluster 2 (962 genes); genes of term in Cluster 2/genes in term, Allen Brain Atlas, Anterior olfactory nucleus, layer 1",36/300
same,Overlap,"Cluster 2 (962 genes); genes of term in Cluster 2/genes in term, Allen Brain Atlas, Main olfactory bulb",31/300
same,Overlap,"Cluster 2 (962 genes); genes of term in Cluster 2/genes in term, Allen Brain Atlas, Main olfactory bulb, glomerular layer",36/300
same,Overlap,"Cluster 2 (962 genes); genes of term in Cluster 2/genes in term, Allen Brain Atlas, Main olfactory bulb, inner plexiform layer",28/300
same,Overlap,"Cluster 2 (962 genes); genes of term in Cluster 2/genes in term, Allen Brain Atlas, Main olfactory bulb, mitral layer",28/300
same,Overlap,"Cluster 2 (962 genes); genes of term in Cluster 2/genes in term, Allen Brain Atlas, Main olfactory bulb, outer plexiform layer",30/300
same,Overlap,"Cluster 2 (962 genes); genes of term in Cluster 2/genes in term, Allen Brain Atlas, OB olfactory fiber layer",33/300
same,Overlap,"Cluster 2 (962 genes); genes of term in Cluster 2/genes in term, Allen Brain Atlas, Olfactory areas",27/300
same,Overlap,"Cluster 2 (962 genes); genes of term in Cluster 2/genes in term, Allen Brain Atlas, Olfactory bulb, principal part",32/300
same,Cluster 2 eigengene expression,Cluster 2 (962 genes); high oral dose vs placebo,significantly increased
same,Number of brain areas significantly overrepresented in second cluster,Cluster 2 (962 genes); n2=962 genes,74 brain areas
same,Number of overrepresented brain areas linked to the olfactory bulb,Cluster 2 (962 genes); out of 74,11 brain areas
same,Number of clusters with significant association between treatment and estimated marginal mean expression,"[1]; Dunnett's test, linear mixed-effect model",6 clusters
same,Dysregulations of Clusters 1 and 2,[1]; highest dose,significantly linked to the highest dose
same,Regulation of both identified clusters,"[1]; treated patients compared to placebo, 14 weeks",up-regulated
same,Sigma-1 receptor (SIGMAR1) activity,[2],agonist

# Reference: patent publication US20260325481A1, “THERAPY SELECTION AND TREATMENT OF NEURODEGENERATIVE DISORDERS” (Anavex Life Sciences Corp., priority 2022, published 2026)
